Test: xn = mol fraction of the nth substance listed
Details: 100 kPa

CC[N+](CC)(CC)CC.[OH-] + CS(C)=O
viscosity [mPa·s]
Details | 298.15 K | 303.15 K | 308.15 K | 313.15 K
x1 = 0.0142 | 2.08 | 1.9 | 1.77 | 1.67
x1 = 0.0405 | 2.24 | 2.07 | 1.96 | 1.88
x1 = 0.0693 | 2.45 | 2.29 | 2.18 | 2.09
x1 = 0.0995 | 2.65 | 2.49 | 2.38 | 2.29
x1 = 0.1314 | 2.89 | 2.72 | 2.62 | 2.52
x1 = 0.165 | 3.11 | 2.95 | 2.84 | 2.76
x1 = 0.1925 | 3.29 | 3.12 | 3 | 2.92
x1 = 0.2381 | 3.57 | 3.41 | 3.3 | 3.24
x1 = 0.2988 | 3.9 | 3.75 | 3.66 | 3.58
x1 = 0.3654 | 4.23 | 4.1 | 4 | 3.95
x1 = 0.4134 | 4.45 | 4.34 | 4.22 | 4.18
x1 = 0.4647 | 4.66 | 4.56 | 4.45 | 4.41
x1 = 0.5486 | 4.94 | 4.85 | 4.73 | 4.71
x1 = 0.6421 | 5.17 | 5.08 | 4.96 | 4.92
x1 = 0.7106 | 5.37 | 5.17 | 5.02 | 5
x1 = 0.7848 | 5.3 | 5.2 | 5.03 | 4.99
x1 = 0.8653 | 5.23 | 5.12 | 4.96 | 4.89
x1 = 0.9531 | 5.08 | 4.89 | 4.67 | 4.54

Reference: the CheMixHub viscosity set
